Assay results reported in publication PMC6100501, “Evaluation of the Antimicrobial Activity and Cytotoxicity of Different Components of Natural Origin Present in Essential Oils” (Molecules : A Journal of Synthetic Chemistry and Natural …, 2018).
≈ marks a conversion by molar mass, not a printed value. Read-outs that look alike come from different tables or passages of the source.

Legend:
[1] = test system: E. coli S17 strain; assay: MIC and MBC determination, broth microdilution method; format: cell-based; conditions: Escherichia coli, S17STRAIN, 24 h, 37 °C, average of 12 replicas
Procedure: (§1) A Gram-negative model E. coli S17 strain was used, which was kindly donated by Dr. Jose Antonio Ainsa, exerting resistance to streptomycin as it is also widely used for transformation purposes. S. aureus ATCC 25923, well-known as not a resistant strain and used in susceptibility tests, was evaluated as a Gram-positive model. Both strains were initially grown overnight in TSB at 37 °C under shaking (150 rpm) obtaining, in the stationary growth phase, 10^8–10^9 CFU/mL. TSA was used for seeding bacteria in an incubator at 37 °C (Memmert, Schwabach, Germany) in order to calculate the bacteria growth (CFU/mL) after treatment with the EO-contained molecules.
(§2) Inhibitory and bactericidal concentrations of active EO molecules were tested in two bacteria cultures, E. coli and S. aureus, following the broth microdilution method. Liquid growth medium containing an inoculum of 10^5 CFU/mL and serial concentrations of the EO compounds (0.1–4 mg/mL) were used. EO compounds were solubilized in culture medium by adding Tween® 80 (1.5–2% v/v) prior to their serial dilution. Once bacteria suspension was in stationary growth (10^8–10^9 CFU/mL), it was further diluted to ~10^5 CFU/mL and added to different concentrations ([…]) of the antimicrobial agents. Then, samples were incubated for 24 h at 37 °C under shaking (150 rpm). After incubation, bacterial suspensions were diluted in PBS and spot-plated on TSA plates to count colonies after incubation at 37 °C for 24 h. Positive control (untreated bacteria) and negative control (chlorhexidine treated bacteria) samples were also tested.

[2] = test system: S. aureus ATCC 25923; assay: as above; format: cell-based; conditions: Staphylococcus aureus
Procedure: as §1, §2

[3] = test system: human dermal fibroblasts; assay: Cytotoxicity, Blue Cell Viability assay; conditions: 24 h
Procedure: (§3) Human dermal fibroblasts, human epidermal keratinocytes (HaCaT), and THP1 human monocytes were used to evaluate the cytotoxic effects of EO-based compounds.
(§4) Fibroblasts and HaCaT were routinely grown in high-glucose DMEM supplemented with 10% FBS and antibiotic-antimycotic. Monocytes were cultured in RPMI 1640 supplemented with 10% FBS, 1% HEPES, 1% nonessential amino acids, 0.1% 2-mercaptoethanol 50 mM, 1% sodium pyruvate 100 mM, and antibiotic-antimycotic. Macrophages were obtained by the in vitro differentiation of monocytes by adding 1 µM PMA to the cell culture. All cell types were grown in a humidified atmosphere at 37 °C and 5% CO2.
(§5) The cytotoxicity was determined by measuring cell metabolism through the Blue Cell Viability assay. Cells were seeded on MW96 microplates and incubated with the tested molecules (0.004–0.125 mg/mL) for 24 h. Control samples (not treated and chlorhexidine treated) were also analyzed. Then, the reagent was added (10%) and cells were incubated for 4 h at 37 °C. The reduction of the dye by metabolically active cells was monitored in a microplate reader (Multimode Synergy HT Microplate Reader; Biotek, Winooski, WI, USA) at 535/590 nm ex/em. Cell viability was determined by interpolation of the emission data obtained from the treated samples and the control samples (not treated cells, 100% viability).

[4] = test system: human epidermal keratinocytes (HaCaT); assay: Cytotoxicity, Blue Cell Viability assay; conditions: 24 h; for subcytotoxic dose: keratinocytes
Procedure: as §3, §4, §5

[5] = test system: macrophages (THP1 human monocytes differentiated with PMA); assay: Cytotoxicity, Blue Cell Viability assay; conditions: 24 h
Procedure: as §3, §4, §5

[6] = test system: E. coli and S. aureus; assay: Bactericidal mechanism by SEM, flow cytometry and confocal microscopy; format: cell-based, Escherichia coli, Staphylococcus aureus; conditions: treated at MIC and MBC for 24 h
Procedure: Bacteria morphology before and after treatment with EO molecules was analyzed by SEM as we previously reported. Briefly, logarithmic growth phase E. coli and S. aureus bacteria cultures (~10^5 CFU/mL) were treated with the selected EO compounds at MIC and MBC values and incubated overnight at 37 °C. Following incubation, samples were spin-dried at 600 g and washed twice in PBS (0.1 M). Bacteria were fixed in 2.5% glutaraldehyde for 90 min and subsequently filtered and dehydrated in ethanol solutions series (30, 50, 70, 80, 90, and 100%; twice for 15 min). Finally, samples were air-dried at room temperature and covered with Pt. SEM micrographs were acquired in a SEM Inspect F50 equipment (FEI Co., LMA-INA, Zaragoza, Spain).
In order to study the bactericidal mechanism of the different molecules present in EOs, E. coli and S. aureus bacteria samples (10^7 CFU/mL) were centrifuged at 4400× g for 10 min and resuspended in the different compound solutions at MIC and MBC concentrations following the protocols previously described. Control groups (not treated and chlorhexidine treated bacteria) were also analyzed. All samples were incubated overnight at 37 °C. After propidium iodide (25 µg/mL; Sigma-Aldrich, Munich, Germany) addition, samples were analyzed by flow cytometry in Gallios equipment (Beckman Coulter Company, Cell Separation and Cytometry Unit, CIBA, IIS Aragon, Zaragoza, Spain).
The Live/Dead®BacLight™ bacterial viability kit (Molecular Probes, Fisher Scientific, Hampton, USA) was used to detect bacteria membrane damage. The methodology is based on the double-staining by SYTO9 and propidium iodide as indicated by the manufacturer. […] Samples were then mounted on slides and visualized by confocal microscopy (Leica TCS SP2 Laser Scanning Confocal Microscope, Microscopy Unit, CIBA, IIS Aragon, Zaragoza, Spain). Control samples were also tested as described above.

[7] = test system: intestinal cells; conditions: cited from earlier work
[8] = test system: fibroblasts; conditions: cited from earlier work
[9] = Cytotoxicity, Blue Cell Viability assay; conditions: human, human dermal fibroblasts
Procedure: as §3, §4, §5

[10] = test system: human dermal fibroblasts, keratinocytes, and macrophages; conditions: 24 h
Procedure: as §3, §4, §5

[11] = test system: S. aureus biofilm; assay: Biofilm disruption: elimination of preformed biofilm (CFU/mL count); format: cell-based, Staphylococcus aureus; conditions: 0.5 mg/mL, 24 h, vs untreated biofilm
Procedure: S. aureus was grown overnight in TSB until stationary growth phase was reached. At this point, bacteria were adjusted to 10^7 CFU/mL and added to a MW96 microplate and incubated at 37 °C for 16 h without shaking. After incubation, culture medium was discarded and biofilms were washed twice with PBS. In order to determine biofilm formation, Calcofluor White Stain (50 µL) was added to each well and incubated 1 min in the dark at room temperature. After incubation, the stain was removed and biofilms were washed twice with PBS. Samples were air-dried in the dark to be further visualized in an inverted fluorescence microscope (Olympus IX81). The effects of EO molecules (0.25–1 mg/mL) to prevent the formation of biofilm and to disrupt an already formed S. aureus biofilm were studied. EO compounds were added to preformed biofilms and samples were incubated for 24 h at 37 °C without shaking. After incubation, biofilms were disrupted by sonication (15 min, 200 W; Ultrasons, JP Selecta, Barcelona, Spain). Samples were then diluted and seeded onto agar plates to count the viable colonies grown after 24 h of incubation at 37 °C.

[12] = test system: S. aureus biofilm; assay: Inhibition of biofilm formation (CFU/mL count); format: cell-based, Staphylococcus aureus; conditions: added to bacteria suspension, 16 h; concentration not printed in the sentence (Figure 5B)
Procedure: To study the effects of the compounds present in the EOs on biofilm formation, those were added to bacterial suspensions (10^7 CFU/mL) in a MW96 microplate and incubated for 16 h at 37 °C without shaking. After incubation, planktonic cells were removed by washing them twice with PBS. Biofilm samples were then sonicated as described above and serially diluted to be further plated on agar. Viable bacteria (CFU/mL) were counted after 24 h of incubation at 37 °C.

[13] = test system: S. aureus; conditions: cited from earlier work
[14] = test system: S. aureus ATCC 43300; conditions: cited from earlier work
[15] = test system: S. aureus ATCC 6538; conditions: cited from earlier work
[16] = test system: tumor cell lines; conditions: cited from earlier work
[17] = ATCC25923, S. aureus, 24 h, 37 °C, average of 12 replicas, read-out: MBC
[18] = ATCC25923, S. aureus, 24 h, 37 °C, average of 12 replicas, read-out: MIC

## Cc1ccc(C(C)C)c(O)c1 [Thymol]
[1]
  MBC: 300 µg/mL (≈ 2 mM)
  MIC: 200 µg/mL (≈ 1.33 mM)
[2]; [17]
  MBC: 300 µg/mL (≈ 2 mM)
[2]; [18]
  MIC: 200 µg/mL (≈ 1.33 mM)
[3]; human
  concentration toxic to fibroblasts (affects viability): ≥ 90 µg/mL
[4]
  subcytotoxic dose: 0.060 mg/mL
[5]; human
  subcytotoxic concentration: 0.060 mg/mL
[6]
  bactericidal mechanism: membrane disruption
[7]
  subcytotoxic concentration: ~ 500 µM
[8]
  concentration giving 50% viability: ~ 5 µg/mL

## O=C(/C=C/c1ccc(O)c(O)c1)O[C@H](Cc1ccc(O)c(O)c1)C(=O)O [Rosmarinic acid]
[1]
  MBC: > 4000 µg/mL
  MIC: > 4000 µg/mL
[2]; [17]
  MBC: 4000 µg/mL (≈ 11.1 mM)
[2]; [18]
  MIC: 2500 µg/mL (≈ 6.94 mM)

## C=C1CC/C=C(\C)CC[C@@H]2[C@@H]1CC2(C)C [β-caryophyllene]
[1]
  MBC: > 4000 µg/mL
  MIC: > 4000 µg/mL
[2]; [17]
  MBC: > 4000 µg/mL
[2]; [18]
  MIC: > 4000 µg/mL

## [H]/N=C(\N/C(=N/[H])NCCCCCCNC(=N)NC(=N)Nc1ccc(Cl)cc1)Nc1ccc(Cl)cc1 [chlorhexidine, reference compound]
[9]
  viability at 24 h, 0.004 mg/mL: > 70%
[4]
  subcytotoxic dose: lower than 0.004 mg/mL
[5]; human
  subcytotoxic concentration: lower than 0.004 mg/mL
[10]
  subcytotoxic concentration: 0.004 mg/mL

## CC(C)=CCC/C(C)=C/CC/C(C)=C/CC/C=C(\C)CC/C=C(\C)CCC=C(C)C [Squalene]
[1]
  MBC: > 4000 µg/mL
  MIC: > 4000 µg/mL
[2]; [17]
  MBC: > 4000 µg/mL
[2]; [18]
  MIC: > 4000 µg/mL

## C=CCc1ccc(O)c(OC)c1 [Eugenol]
[1]
  MBC: 500 µg/mL (≈ 3.04 mM)
  MIC: 400 µg/mL (≈ 2.44 mM)
[2]; [17]
  MBC: 1500 µg/mL (≈ 9.13 mM)
[2]; [18]
  MIC: 1300 µg/mL (≈ 7.92 mM)

## Cc1ccc(C(C)C)cc1O [Carvacrol]
[1]
  MBC: 400 µg/mL (≈ 2.66 mM)
  MIC: 200 µg/mL (≈ 1.33 mM)
[2]; ATCC25923, 24 h
  MBC: 300 µg/mL (≈ 2 mM)
  MIC: 200 µg/mL (≈ 1.33 mM)
[11]
  reduction in bacteria growth (CFU/mL) of preformed biofilm: 3 logs
[12]
  decrease in posterior bacterial growth, compound added before biofilm formation: ~6 logs
[3]; viability below 70% (ISO 10993-5)
  concentration toxic to fibroblasts (affects viability): ≥ 90 µg/mL
[4]
  subcytotoxic dose: 0.030 mg/mL
[5]; macrophages
  subcytotoxic concentration: 0.090 mg/mL
[6]
  bactericidal mechanism: membrane disruption
[13]; lower end of literature range
  MIC: approximately 0.15 mg/mL
[13]; upper end of literature range
  MIC: 15000 µg/mL (≈ 99.9 mM)
[14]
  MIC: 310 µg/mL (≈ 2.06 mM)
[15]; converted from 0.015% v/v
  MIC: approximately 0.147 mg/mL
[15]; converted from 2.5 µL/mL
  MIC: approximately 2.45 mg/mL
[15]; ref 18
  MIC: 0.015 % v/v
[15]; ref 21
  MIC: 2.5 µL/mL
[15]; ref 22
  MIC: 0.4 mg/mL (≈ 2.66 mM)
[7]; intestinal cells
  subcytotoxic concentration: ~ 500 µM
[8]; fibroblasts
  concentration giving 50% viability: ~ 5 µg/mL

## O=C/C=C/c1ccccc1 [Cinnamaldehyde]
[1]
  MBC: 300 µg/mL (≈ 2.27 mM)
  MIC: 200 µg/mL (≈ 1.51 mM)
[2]; [17]
  MBC: 500 µg/mL (≈ 3.78 mM)
[2]; [18]
  MIC: 400 µg/mL (≈ 3.03 mM)
[11]
  reduction in bacteria growth (CFU/mL) of preformed biofilm: around 2 logs
[12]
  decrease in posterior bacterial growth, compound added before biofilm formation: 4 logs
[3]; human
  concentration toxic to fibroblasts (affects viability): 15 µg/mL
[4]; human
  dose that reduces viability below 70%: 0.030 mg/mL
[5]; human
  dose that reduces viability below 70%: 0.030 mg/mL
[6]
  bactericidal mechanism: membrane disruption
[16]
  subcytotoxic concentration: ~ 10 µg/mL
